Measured values from patent publication US4900658A, “Chromophoric peptides for detecting peptidylglycine-α-amidizing monooxygenase” (Hoechst Aktiengesellschaft, priority 1986, dated 1990).
Where a SMILES comes first, the peptide text is derived from it. [ ]: non-standard residue; d: D form. The star is where a group is joined. Dansyl = CN(C)c1cccc2c(S(=O)(=O)*)cccc12

Target: peptidylglycine-α-amidizing monooxygenase (PAM) (Bos taurus, UniProt P10731)
Details: after 3 hours
Experimental: The tests with the substrate, according to the invention, of the formula I (R=Gly--OH) and with the comparison substance of the formula I (R=NH2) were carried out both with the crude fractions and also with the enriched fractions.
Procedure for enzyme assay using the substrate of the formula I (R=Gly--OH) and the reference substance of the formula II (R=NH2)
The enzyme tests are carried out in a buffer of pH 7.4. The aqueous buffer is composed of the buffer substance N-[tris-(hydroxymethyl)-methyl]-2-amino-ethanesulfonic acid (100 mM), CuSO4 (3 μM), peptide substrate of the formula I (R=Gly--OH) (50 μM) and catalase from bovine liver (100 μg/ml). 100 μl of this buffer solution are incubated with 100 μl of the solution containing PAM, and, after 3 hours at 37° C., the reaction is stopped by adding 700 μl of CH2 Cl2. […] After the mixture has been centrifuged and the organic phase removed, the latter is evaporated in a vacuum centrifuge and the residue is again taken up in a constant volume of CH2 Cl2. All operations are carried out with exclusion of light in order to prevent photo-reactions of the light-sensitive substrate. […] Quantification of the resulting amide of the formula I (R=NH2) by means of a thin layer scanner is made possible by simultaneously applying the peptide amide of the formula II in various concentrations as a reference.

Sequence of peptidylglycine-α-amidizing monooxygenase (PAM) (P10731 31-972): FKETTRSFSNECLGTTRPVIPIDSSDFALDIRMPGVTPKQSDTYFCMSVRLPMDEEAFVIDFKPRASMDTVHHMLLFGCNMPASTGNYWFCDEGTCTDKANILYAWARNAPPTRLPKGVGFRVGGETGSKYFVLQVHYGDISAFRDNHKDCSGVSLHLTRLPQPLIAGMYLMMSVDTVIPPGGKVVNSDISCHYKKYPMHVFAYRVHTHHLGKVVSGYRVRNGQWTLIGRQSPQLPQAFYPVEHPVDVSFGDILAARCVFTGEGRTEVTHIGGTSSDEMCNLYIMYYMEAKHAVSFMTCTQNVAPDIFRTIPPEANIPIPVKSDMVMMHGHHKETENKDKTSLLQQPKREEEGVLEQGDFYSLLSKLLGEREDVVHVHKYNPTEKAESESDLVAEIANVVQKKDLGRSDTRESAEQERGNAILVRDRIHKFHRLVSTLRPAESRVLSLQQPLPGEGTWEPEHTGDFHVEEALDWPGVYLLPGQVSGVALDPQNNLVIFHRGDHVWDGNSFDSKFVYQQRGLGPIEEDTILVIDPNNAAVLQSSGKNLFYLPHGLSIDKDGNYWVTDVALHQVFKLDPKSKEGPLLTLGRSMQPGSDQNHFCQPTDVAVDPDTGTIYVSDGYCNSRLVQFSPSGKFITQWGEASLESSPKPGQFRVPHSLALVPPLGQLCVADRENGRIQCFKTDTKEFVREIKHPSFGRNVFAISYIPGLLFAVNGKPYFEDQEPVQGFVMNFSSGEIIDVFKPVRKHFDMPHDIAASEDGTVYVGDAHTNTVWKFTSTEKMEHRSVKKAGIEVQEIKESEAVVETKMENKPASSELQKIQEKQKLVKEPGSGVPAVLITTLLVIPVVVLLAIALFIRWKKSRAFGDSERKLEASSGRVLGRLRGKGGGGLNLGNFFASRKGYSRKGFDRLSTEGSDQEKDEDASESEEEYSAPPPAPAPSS

Q: With C[C@@H](NS(=O)(=O)c1cccc2c(N(C)C)cccc12)C(=O)N1CCC[C@H]1C(=O)NCC(=O)O [DIS-D-Ala--Pro--Gly--OH, DIS--D--Ala--Pro--Gly--OH] (Dansyl-[dA]-Pro-Gly-OH) as the compound, how does the “Share of the substrate reacted” value read?
A: approx. 5%
